One data set can be described thus: PK study in mice. Particulars: mouse. The data set is classed as in vivo, C57BL/6 mice. As for the experimental part: The PK study of NR-V04 was done by Bioduro Inc. on three healthy male C57BL/6 mice weighing between 20 and 25 g in each group. Test compound (i.v.) was dissolved in 5% DMSO/3% tween 80 in PBS with 0.5 mEq 1N HCl and was administered (n = 3 per group) at a dose level of 2 mg/kg (concentration: 0.4 mg/ml). Test compounds (i.p.) were dissolved in 5% DMSO/3% tween 80 in PBS with 2 mEq 1N HCl (concentration […]) and were administrated at a dose level of 20 mg/kg. Plasma samples (i.v.) were collected from the orbital plexus at 0.083, 0.25, 0.5, 1.0, 2.0, 4.0, 8.0, and 24 h, and plasma samples (i.p.) were collected from the orbital plexus at 0.25, 0.50, 1.0, 2.0, 4.0, 8.0, and 24 h after dosing. The drug concentrations in the samples were quantified by LC/tandem MS. PK parameters were calculated from the mean plasma concentration by non-compartmental analysis.

In a further data set the target is T1, VHL (Homo sapiens, UniProt P40337).
T1 construct: endogenous in cells; host or cells: CHL-1, A375, WM164, M229 human melanoma cells
T1 sequence (P40337 whole entry): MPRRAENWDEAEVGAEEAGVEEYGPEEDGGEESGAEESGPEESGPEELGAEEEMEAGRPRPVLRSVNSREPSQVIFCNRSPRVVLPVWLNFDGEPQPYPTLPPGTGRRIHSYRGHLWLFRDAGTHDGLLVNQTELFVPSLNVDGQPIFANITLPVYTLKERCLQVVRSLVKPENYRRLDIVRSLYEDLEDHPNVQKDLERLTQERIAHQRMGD
Description: VHL protein level after treatment (immunoblotting). The data set is classed as cell-based. The following applies: human melanoma cell lines, 16 h. As for the experimental part:
(§1) Samples were lysed using radioimmunoprecipitation assay buffer (RIPA) lysis buffer (150 mM NaCl, 5 mM EDTA, 50 mM Tris pH 8.0, 0.5% sodium deoxycholate, 1% NP-40, 0.1% SDS) supplemented with 1 mM dithiothreitol and protease inhibitors. The lysates were separated by SDS-PAGE and analyzed using standard western blotting procedures ([Khan et al., 2019]). Antibodies: human NR4A1 (ab153914, 1:1,000; Abcam), mouse NR4A1 (14-5965-82, 1:1,000; Invitrogen), NR4A2 (AV38753, 1:1,000; Sigma-Aldrich), NR4A3 (TA804893, 1: 1,000; Thermo Fisher Scientific), VHL (68547, 1:1,000; Cell Signaling), β-actin (13E5, 1:5,000; Cell Signaling), β-tubulin (9F3, 1: 5,000; Cell Signaling), and GAPDH (D16H11, 1: 5,000; Cell Signaling) were employed for protein detection.

Another data set deals with T2, NR4A1 (Mus musculus, UniProt P12813).
T2 construct: from tissue; host or cells: MC38 tumours in mice (tumour lysates)
T2 sequence (P12813 whole entry): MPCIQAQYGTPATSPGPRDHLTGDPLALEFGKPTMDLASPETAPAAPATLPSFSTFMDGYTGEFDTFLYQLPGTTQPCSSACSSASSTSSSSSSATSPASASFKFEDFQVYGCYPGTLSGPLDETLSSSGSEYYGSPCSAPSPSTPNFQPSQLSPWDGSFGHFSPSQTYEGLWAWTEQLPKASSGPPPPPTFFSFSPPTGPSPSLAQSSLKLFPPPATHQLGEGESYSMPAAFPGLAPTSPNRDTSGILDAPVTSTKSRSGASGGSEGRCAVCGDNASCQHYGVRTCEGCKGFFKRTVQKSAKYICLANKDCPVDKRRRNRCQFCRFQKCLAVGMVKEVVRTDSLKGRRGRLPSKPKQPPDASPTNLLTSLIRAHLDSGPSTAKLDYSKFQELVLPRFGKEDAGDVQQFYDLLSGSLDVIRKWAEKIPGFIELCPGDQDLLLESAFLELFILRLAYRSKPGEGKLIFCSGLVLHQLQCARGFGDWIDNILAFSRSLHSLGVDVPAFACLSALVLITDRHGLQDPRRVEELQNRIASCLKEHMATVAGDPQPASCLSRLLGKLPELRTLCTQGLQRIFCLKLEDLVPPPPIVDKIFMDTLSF
Kind of data set: NR4A1 degradation in SM1 and SW1 mouse melanoma cell lines (immunoblotting). Particulars: 16 h. It is filed as cell-based. As for the experimental part: Human melanoma cell lines: A375 and CHL-1 (gifts from Dr. D. Zhou, the University of Texas Health Science Center, San Antonio, TX, USA) were cultured in Dulbecco’s Modified Eagles’ Medium (DMEM, D5796; Sigma-Aldrich), WM164 and M229 (gifts from Dr. K.S.M. Smalley’s lab) were cultured in RPMI-1640 (R8758; Sigma-Aldrich). Mouse melanoma cell lines: B16F10 (CRL-6475, ATCC) was cultured in DMEM, SW1 and SM1 (gift from Dr. K.S.M. Smalley, Moffitt Cancer Center, Tampa, FL, USA) were cultured in RPMI. Human epithelial kidney cell lines: HEK293T (293T, CRL-3216; ATCC) and Vhl-KO-293T (gift from Dr. D. Zhou, the University of Texas Health Science Center, San Antonio, TX, USA) were cultured in DMEM. Mouse colon cancer cell lines: MC38 (ENH204-FP; Kerafast Inc.) was cultured in DMEM supplemented with 1 mM glutamine, […] non-essential amino acids (11140050; Thermo Fisher Scientific), 1 mM sodium pyruvate (11360070; Thermo Fisher Scientific), and 10 mM HEPES (15630080; Thermo Fisher Scientific). […]
Samples were lysed using radioimmunoprecipitation assay buffer (RIPA) lysis buffer (150 mM NaCl, 5 mM EDTA, 50 mM Tris pH 8.0, 0.5% sodium deoxycholate, 1% NP-40, 0.1% SDS) supplemented with 1 mM dithiothreitol and protease inhibitors. The lysates were separated by SDS-PAGE and analyzed using standard western blotting procedures ([Khan et al., 2019]). […]
(In general: In western blotting, separated proteins are transferred to a membrane and probed.)

In another data set the target is T3, NR4A2 (Homo sapiens, UniProt P43354).
T3 construct: endogenous in cells
T3 sequence (P43354 whole entry): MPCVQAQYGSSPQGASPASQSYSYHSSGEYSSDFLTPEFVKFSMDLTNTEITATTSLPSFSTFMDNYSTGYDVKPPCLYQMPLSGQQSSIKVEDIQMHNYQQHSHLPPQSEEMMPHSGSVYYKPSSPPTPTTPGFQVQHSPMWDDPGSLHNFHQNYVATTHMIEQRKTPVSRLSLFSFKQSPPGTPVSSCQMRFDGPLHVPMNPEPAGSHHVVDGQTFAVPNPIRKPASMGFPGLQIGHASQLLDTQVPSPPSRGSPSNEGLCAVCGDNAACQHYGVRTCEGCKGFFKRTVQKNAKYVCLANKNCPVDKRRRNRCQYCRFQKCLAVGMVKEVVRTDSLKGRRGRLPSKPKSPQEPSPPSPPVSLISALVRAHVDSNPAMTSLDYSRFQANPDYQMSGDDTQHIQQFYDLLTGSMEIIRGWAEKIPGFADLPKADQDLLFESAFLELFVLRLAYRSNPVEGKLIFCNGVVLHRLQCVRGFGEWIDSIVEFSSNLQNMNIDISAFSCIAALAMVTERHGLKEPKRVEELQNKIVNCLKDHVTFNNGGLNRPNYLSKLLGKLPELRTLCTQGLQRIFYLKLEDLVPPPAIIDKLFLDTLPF
Kind of data set: NR4A2 protein level after treatment (immunoblotting). The data set is classed as cell-based. The procedure: as §1

Regarding `CC1=C(O)C(=O)C=C2C1=CC=C1[C@@]2(C)CC[C@@]2(C)[C@@H]3C[C@](C)(C(=O)NCCOCCOCCOCCOCC(=O)N[C@H](C(=O)N4C[C@H](O)C[C@H]4C(=O)N[C@@H](C)c4ccc(-c5scnc5C)cc4)C(C)(C)C)CC[C@]3(C)CC[C@]12C` [NR-V04], in “PK study in mice” (male, C57BL/6, plasma, IV 2 mg/kg), the clearance (in general, the rate of elimination divided by the concentration) is 0.162 mL/min/kg. In addition, the “clearance rate (in words)” value in “PK study in mice” is “low clearance rate”. Moreover, the VHL protein level result on VHL was “accumulation of VHL protein”. Moreover, the NR4A1 protein level result at NR4A1 (SM1 mouse melanoma cells) and on NR4A1 (SW1 mouse melanoma cells) was “reduced NR4A1 protein level” throughout. In addition, the “NR4A2 protein level (selectivity in the NR4A family)” value on NR4A2 was “sparing NR4A2 and NR4A3”.
